From US8871788B2, “Substituted N-alkyl and N-acyl tetrahydro-isoquinoline derivatives, preparation and therapeutic use thereof” (Sanofi, priority 2010, dated 2014)

Legend:
rhesus H3 = target: T1, rhesus H3 (Macaca mulatta, UniProt Q865E1); test: GTPγS radioligand binding assay, rhesus H3 constitutive functional activity in cell membranes; assay type: biochemical, rhesus monkey (Macacca Mulatta); conditions: relative to basal levels
T1 construct: 445 amino acid H3 receptor; expressed in transfected cells; host or cells: Flp-In T-REx 293 Cell Line (Invitrogen), pcDNA5/FRT/TO, induced with tetracycline
T1 sequence (Q865E1 1-445): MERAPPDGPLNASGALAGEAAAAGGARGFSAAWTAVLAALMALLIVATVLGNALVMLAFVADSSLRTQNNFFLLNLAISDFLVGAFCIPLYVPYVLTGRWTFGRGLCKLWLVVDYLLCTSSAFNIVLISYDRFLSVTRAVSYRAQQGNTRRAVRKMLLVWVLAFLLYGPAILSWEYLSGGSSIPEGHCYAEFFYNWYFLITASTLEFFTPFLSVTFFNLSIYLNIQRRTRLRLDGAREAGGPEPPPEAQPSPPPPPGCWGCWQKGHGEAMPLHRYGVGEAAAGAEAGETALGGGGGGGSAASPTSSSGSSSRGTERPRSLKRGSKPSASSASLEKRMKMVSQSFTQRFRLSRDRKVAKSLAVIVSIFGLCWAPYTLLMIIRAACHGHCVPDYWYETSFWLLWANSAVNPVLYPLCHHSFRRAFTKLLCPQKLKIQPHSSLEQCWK
Procedure: (§1) Rhesus H3 membranes were prepared from the Flp-In T-REx 293 Cell Line (Invitrogen) stably transfected with pcDNA5/FRT/TO (Invitrogen) containing the rhesus monkey (Macacca Mulatta) 445 amino acid H3 receptor. (Genbank #AY231164). Stably transfected cultures were amplified in tissue culture flasks by standard tissue culture methods and induced to express rhesus H3 by exposure to 500 ng/ml tetracycline (Cellgro) for 24 hours. After induction, cells were dissociated from flasks utilizing Cell Stripper (Cellgro). Cells were centrifuged (1K×g, 5 min) and pellet frozen in an ethanol-dry ice bath to disrupt cell membranes. Frozen cell pellet was re-suspended in 5 mM HEPES (pH 7.4, Invitrogen) at 10 ml/1000 cm2 of harvested cells. The cell suspension was drawn through an 18 gauge needle (2-3×) followed by a 23 gauge needle (2-3×) to further disrupt cell membranes. The cell suspension was centrifuged (40K×g, 30 min). Cell membrane pellet was re-suspended in 5 mM HEPES (pH 7.4, Invitrogen) at a final protein concentration of 10 mg/ml. Rhesus H3 membranes were stored under liquid nitrogen prior to use in [3H]-Methylhistamine and GTPγS radioligand binding assays.

[1] = target: T2, rhesus (Macacca Mulatta) H3 receptor (Macaca mulatta, UniProt Q865E1); test: Rhesus H3 [3H]-Methylhistamine radioligand binding assay (SPA); set-up: species or system rhesus monkey (Macacca Mulatta); conditions: [3H]-Methylhistamine 2 nM, rhesus H3 membranes, Cheng-Prusoff
T2 construct: 445 amino acid H3 receptor; expressed in transfected cells; host or cells: Flp-In T-REx 293 Cell Line (Invitrogen), pcDNA5/FRT/TO, induced with tetracycline
T2 sequence (Q865E1 1-445): as above
Procedure: as §1
(§2) Rhesus H3 radioligand binding assay was performed using rhesus H3 receptor membranes (prepared as described above), [3H]-Methylhistamine (Perkin Elmer) and WGA SPA beads (wheat germ agglutinin scintillation proximity assay) beads (Amersham). The assay was performed in 96-well Opti-Plates (Packard). Each reaction contained 50 μl rhesus H3 membranes (20-30 μg total protein), 50 μl WGA SPA beads (0.1 μg) and 50 μl of 83Ci/mmol [^3H]-Methylhistamine (final concentration 2 nM) and 50 μl of tested compound. The compounds of this invention and/or vehicle were diluted with binding buffer from 10 mM DMSO stocks. Assay plates were sealed with TopSeal (Perkin Elmer) and mixed on shaker (25° C., 1 hour). Assay plates were read on TopCount scintillation counter (Packard). Results were analyzed by Hill transformation and Ki values were determined by Cheng-Prusoff equation. Similar procedure was employed to determine the binding data for rat.

Rat H3 = Rat H3 (Rattus norvegicus, UniProt Q9QYN8); test: Rat H3 radioligand binding (similar procedure); conditions: rat H3, similar procedure to rhesus binding
Chain of Rat H3 (Q9QYN8 whole entry): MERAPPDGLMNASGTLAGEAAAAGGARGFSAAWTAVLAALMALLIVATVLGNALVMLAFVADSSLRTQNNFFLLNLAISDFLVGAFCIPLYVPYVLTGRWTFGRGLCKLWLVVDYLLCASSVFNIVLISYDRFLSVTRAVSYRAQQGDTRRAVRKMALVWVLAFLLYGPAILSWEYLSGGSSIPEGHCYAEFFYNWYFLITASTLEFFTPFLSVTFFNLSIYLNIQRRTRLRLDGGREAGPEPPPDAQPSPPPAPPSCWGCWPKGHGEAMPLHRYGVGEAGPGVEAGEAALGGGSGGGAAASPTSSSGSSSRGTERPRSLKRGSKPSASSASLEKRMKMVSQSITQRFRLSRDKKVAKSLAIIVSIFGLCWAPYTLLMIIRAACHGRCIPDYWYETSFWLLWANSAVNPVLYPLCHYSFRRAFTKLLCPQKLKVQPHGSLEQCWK
Procedure: as §2

GTPγS-35 ASSAY % Inverse Agonism (rhesus H3) | Ki [1] | Ki (Rat H3) | SMILES
−27.7% | 25 nM | 15 nM | COc1cccc(S(=O)(=O)N2CCc3cc(N4CC[C@H](N5CCC[C@@H]5C)C4)ccc3C2)c1.O=C(O)C(F)(F)F [Example 22, 2-(3-Methoxy-benzenesulfonyl)-6-((2S,3′S)-2-methyl-[1,3′]bipyrrolidinyl-1′-yl)-1,2,3,4-tetrahydro-isoquinoline; compound with trifluoro-acetic acid]
−16.8% | 0.22 nM | 2.7 nM | C[C@H]1CCCN1[C@H]1CCN(c2ccc3c(c2)CCN(C(=O)c2ccoc2)C3)C1 [Example 15, Furan-3-yl-[6-((2S,3′S)-2-methyl-[1,3′]bipyrrolidinyl-1′-yl)-3,4-dihydro-1H-isoquinolin-2-yl]-methanone]
−26.1% | 2.8 nM | 6.2 nM | COc1ccc(C(=O)N2CCc3cc(N4CC[C@H](N5CCC[C@@H]5C)C4)ccc3C2)cc1 [Example 12, (4-Methoxy-phenyl)-[6-((2S,3′S)-2-methyl-[1,3′]bipyrrolidinyl-1′-yl)-3,4-dihydro-1H-isoquinolin-2-yl]-methanone]
−6.2% | 0.37 nM | 0.19 nM | C[C@H]1CCCN1[C@H]1CCN(c2ccc3c(c2)CCN(Cc2ccc(F)cc2)C3)C1 [Example 9, 2-(4-Fluoro-benzyl)-6-((2S,3′S)-2-methyl-[1,3′]bipyrrolidinyl-1′-yl)-1,2,3,4-tetrahydro-isoquinoline]
−25.5% | 0.66 nM | 0.91 nM | C[C@H]1CCCN1[C@H]1CCN(c2ccc3c(c2)CN(C(=O)C2CCOCC2)CC3)C1 [Example 2, [7-((2S,3′S)-2-Methyl-[1,3′]bipyrrolidinyl-1′-yl)-3,4-dihydro-1H-isoquinolin-2-yl]-(tetrahydro-pyran-4-yl)-methanone]
−7.9% | 0.35 nM | 0.31 nM | C[C@H]1CCCN1[C@H]1CCN(c2ccc3c(c2)CCN(C2CCC(NC(=O)OC(C)(C)C)CC2)C3)C1 (stereo partly drawn) [Example 11, {4-[6-((2S,3′S)-2-Methyl-[1,3′]bipyrrolidinyl-1′-yl)-3,4-dihydro-1H-isoquinolin-2-yl]-cyclohexyl}-carbamic acid tert-butyl ester]
−18.9% | 0.29 nM | 7.3 nM | C[C@H]1CCCN1[C@H]1CCN(c2ccc3c(c2)CCN(C(=O)c2ccccc2)C3)C1 [Example 16, [6-((2S,3′S)-2-Methyl-[1,3′]bipyrrolidinyl-1′-yl)-3,4-dihydro-1H-isoquinolin-2-yl]-phenyl-methanone]
−17.2% | 0.28 nM | 2.6 nM | C[C@H]1CCCN1[C@H]1CCN(c2ccc3c(c2)CCN(C(=O)c2cccnc2)C3)C1 [Example 14, [6-((2S,3′S)-2-Methyl-[1,3′]bipyrrolidinyl-1′-yl)-3,4-dihydro-1H-isoquinolin-2-yl]-pyridin-3-yl-methanone]
−33.2% | 88 nM | 110 nM | Cc1ccc(S(=O)(=O)N2CCc3cc(N4CC[C@H](N5CCC[C@@H]5C)C4)ccc3C2)cc1 [Example 24, 6-((2S,3′S)-2-Methyl-[1,3′]bipyrrolidinyl-1′-yl)-2-(toluene-4-sulfonyl)-1,2,3,4-tetrahydro-isoquinoline]
−12.2% | 0.15 nM | 0.51 nM | C[C@H]1CCCN1[C@H]1CCN(c2ccc3c(c2)CCN(C(=O)C2CCCC2)C3)C1 [Example 21, Cyclopentyl-[6-((2S,3′S)-2-methyl-[1,3′]bipyrrolidinyl-1′-yl)-3,4-dihydro-1H-isoquinolin-2-yl]-methanone]
−16.1% | 3.7 nM | 7.7 nM | C[C@H]1CCCN1[C@H]1CCN(c2ccc3c(c2)CCN(C(=O)C(c2ccccc2)c2ccccc2)C3)C1 [Example 13, 1-[6-((2S,3′S)-2-Methyl-[1,3′]bipyrrolidinyl-1′-yl)-3,4-dihydro-1H-isoquinolin-2-yl]-2,2-diphenyl-ethanone]
−28.0% | 0.11 nM | 0.05 nM | C[C@H]1CCCN1[C@H]1CCN(c2ccc3c(c2)CCN(C2CCOCC2)C3)C1.O=C(O)C(F)(F)F [Example 4, 6-((2S,3′S)-2-Methyl-[1,3′]bipyrrolidinyl-1′-yl)-2-(tetrahydro-pyran-4-yl)-1,2,3,4-tetrahydro-isoquinoline hydrochloride]
−22.5% | 11 nM | 280 nM | COc1cccc(NC(=O)N2CCc3cc(N4CC[C@H](N5CCC[C@@H]5C)C4)ccc3C2)c1 [Example 23, 6-((2S,3′S)-2-Methyl-[1,3′]bipyrrolidinyl-1′-yl)-3,4-dihydro-1H-isoquinoline-2-carboxylic acid (3-methoxy-phenyl)-amide]
−10.7% | 0.094 nM | 0.24 nM | C[C@H]1CCCN1[C@H]1CCN(c2ccc3c(c2)CCN(C(=O)C2CCCCC2)C3)C1 [Example 18, Cyclohexyl-[6-((2S,3′S)-2-methyl-[1,3′]bipyrrolidinyl-1′-yl)-3,4-dihydro-1H-isoquinolin-2-yl]-methanone]
−24.9% | 0.9 nM | 0.74 nM | C[C@H]1CCCN1[C@H]1CCN(c2ccc3c(c2)CCN(C2CCN(C(=O)OC(C)(C)C)C2)C3)C1 (stereo partly drawn) [Example 6, 3-[6-((2S,3′S)-2-Methyl-[1,3′]bipyrrolidinyl-1′-yl)-3,4-dihydro-1H-isoquinolin-2-yl]-pyrrolidine-1-carboxylic acid tert-butyl ester]
−9.1% | 0.46 nM | 6.9 nM | C[C@H]1CCCN1[C@H]1CCN(c2ccc3c(c2)CCN(Cc2ccc4c(c2)OCCO4)C3)C1 [Example 8, 2-(2,3-Dihydro-benzo[1,4]dioxin-6-ylmethyl)-6-((2S,3′S)-2-methyl-[1,3′]bipyrrolidinyl-1′-yl)-1,2,3,4-tetrahydro-isoquinoline]
−0.5% | 1.2 nM | 75 nM | CCOC(=O)N1CCc2cc(N3CC[C@H](N4CCC[C@@H]4C)C3)ccc2C1 [Example 25, 6-((2S,3′S)-2-Methyl-[1,3′]bipyrrolidinyl-1′-yl)-3,4-dihydro-1H-isoquinoline-2-carboxylic acid ethyl ester]
−10.4% | 0.19 nM | 3.1 nM | C[C@H]1CCCN1[C@H]1CCN(c2ccc3c(c2)CCN(C(=O)c2ccc(F)cc2)C3)C1 [Example 17, (4-Fluoro-phenyl)-[6-((2S,3′S)-2-methyl-[1,3′]bipyrrolidinyl-1′-yl)-3,4-dihydro-1H-isoquinolin-2-yl]-methanone]
−17.4% | 0.12 nM | 0.22 nM | C[C@H]1CCCN1[C@H]1CCN(c2ccc3c(c2)CCN(C(=O)C2CCOCC2)C3)C1 [Example 19, [6-((2S,3′S)-2-Methyl-[1,3′]bipyrrolidinyl-1′-yl)-3,4-dihydro-1H-isoquinolin-2-yl]-(tetrahydro-pyran-4-yl)-methanone]
−23.0% | 22 nM | 140 nM | C[C@H]1CCCN1[C@H]1CCN(c2ccc3c(c2)CCN(C(=O)c2cc4c(ccn4CCOC[Si](C)(C)C)s2)C3)C1 [Example 20, [6-((2S,3′S)-2-Methyl-[1,3′]bipyrrolidinyl-1′-yl)-3,4-dihydro-1H-isoquinolin-2-yl]-[4-(2-trimethylsilanylmethoxy-ethyl)-4H-thieno[3,2-b]pyrrol-2-yl]-methanone]
−6.9% | 1.2 nM | 0.19 nM | C[C@H]1CCCN1[C@H]1CCN(c2ccc3c(c2)CCN(CC2CCCC2)C3)C1 [Example 7, 2-Cyclopentylmethyl-6-((2S,3′S)-2-methyl-[1,3′]bipyrrolidinyl-1′-yl)-1,2,3,4-tetrahydro-isoquinoline]
– | 0.38 nM | 0.97 nM | CCOC(=O)N1CCC(N2CCc3cc(N4CC[C@H](N5CCC[C@@H]5C)C4)ccc3C2)CC1 [Example 3, 4-[6-((2S,3′S)-2-Methyl-[1,3′]bipyrrolidinyl-1′-yl)-3,4-dihydro-1H-isoquinolin-2-yl]-piperidine-1-carboxylic acid ethyl ester]
